# Source: patent US20060074109A1, “Use of inhibitors of 24-hydroxylase in the treatment of cancer” (Sapphire Therapeutics, Inc., priority 2004, published 2006)
# Like-named read-outs stand apart in the source and are kept apart here.
# Tests used:
# [1] = tested on: RARγ mRNA in SK-OV-3 cells; assay: RPA and quantitative RT-PCR of receptor mRNA; format: cell-based, human; conditions: 24 hour
# Text: (§1) Briefly, ^32P-labelled ([α-^32P]UTP, Amersham Biosciences, Buckinghamshire, UK) RNA-probes were synthesised using in vitro transcription reaction (In vitro transcription reaction kit, Pharmingen, San Diego, Calif.) using two different template sets.
# (§2) RPLP0 was used as reference gene.
# [2] = tested on: RARα mRNA in SK-OV-3 cells; assay: RPA and quantitative RT-PCR of receptor mRNA; format: cell-based, human; conditions: 24 hour
# Text: as §1, §2
# [3] = tested on: RARγ mRNA in UT-OC-1 cells; assay: RPA and quantitative RT-PCR of receptor mRNA; format: cell-based, human; conditions: 24 hour
# Text: as §1, §2
# [4] = tested on: OVCAR-3 ovarian cancer cells; assay: Cell growth, methylene blue uptake (Experiment VI); format: cell-based, human; conditions: calcitriol alone
# Procedure: (§3) Culture conditions were the same as for Experiment I. Cell growth was measured using uptake of methylene blue (0.5% in 50% ethanol), followed by air drying and release of the dye in 1% sodium N-lauroyl sarcosine in PBS.
# OVCAR-3 cells = assay: Cell growth assay, crystal violet, 11 days; format: cell-based, human; conditions: 11 days
# Procedure: (§4) The human ovarian adenocarcinoma cell line, OVCAR-3 (ATCC, Manassas, Va.) was maintained, as recommended by the supplier, in RPMI 1640 medium (Sigma Aldrich, St. Louis, Mo.) supplemented with 10% FBS, 10 μg/ml insulin, 0.25% glucose and antibiotics (100 IU/ml penicillin, 100 μg/ml streptomycin). Human ovarian adenocarcinoma cell lines UT-OC-1, UT-OC-2, UT-OC-3, UT-OC-4, UT-OC-5 (Grenman, S., Engblom, P., Rantanen, V., Klemi, P. and Isola, J., “Cytogenetic Characterization of Five New Ovarian Carcinoma Cell Lines,” Acta Obstet. Gynecol. Scand., 76:83 (1997)) and SK-OV-3 and a human keratinocyte cell line HaCaT were grown in DMEM (Sigma Aldrich) with 10% FBS and antibiotics (100 IU/ml penicillin, 100 μg/ml streptomycin), and monkey kidney COS cells were maintained in DMEM/F12 (Sigma Aldrich) with 5% FBS. All cell lines were kept at 37° C. in a humidified 95% air/5% CO2 incubator.
# (§5) When OVCAR-3 cells were on the logarithmic growth phase (70% confluent) the growth assay was started. For cell growth assay, 2,000 cell/200 μl/well were plated on 96-well culture plates. […] Ethanol was used as a vehicle, and it was also included in the control. The medium containing ethanol vehicle and/or hormones were changed to a fresh one every third day. Cell growth samples were taken 0, 1, 3, 5, 7, 9 and 11 days after the treatment.
# (§6) Relative cell numbers were quantified as described previously (Kueng W, Silber E, Eppenberger U. Quantification of cells cultured on 96-well plates. Anal. Biochem., 182:16-9 (1989)). Cells were fixed on the bottom of the wells by addition of 10 μl of 11% glutaraldehyde solution in 0.1% phosphate buffer to 100 μl of medium. The plate was shaken 500 cycles/min for 15 min, washed 3 times by submersion in de-ionised water and air-dried. Fixed cells were stained with 0.1% solution of crystal violet dissolved in de-ionised water. After 20 min incubation, excess dye was removed by carefully washing with de-ionised water. The plate was air-dried prior to a bound dye solubilisation in 100 μl of 10% acetic acid. Relative cell number was given as absorbance units by measuring the optical density (590 nm) from each well using Victor 1420 multilabel counter (Wallac, Turku, Finland). Six determinations were used to calculate the mean optical density ±SD in each concentration at each time point. The absorbance value of day 0 (an overnight culture of 2,000 cells/well) was set as 0 by subtracting it from each value obtained from adjacent time-point measurements (days 1-11), and based on these values growth curves were created. Experiments were repeated 3-5 times. Day 11 was used to compare the effect of hormone treatments and 24OHase inhibitor. Statistical analyses were done using Student's t-test.
# The cell growth response was determined as described in Experiment I. Briefly, cells were treated with indicated hormone concentrations or combinations of hormone and 24OHase inhibitor (VID400) for 11 days. The growth medium and hormones were changed to a fresh one every third day. After the treatment period, cells were fixed, stained with crystal violet, and the optical density (590 nm) was determined. The cell growth is presented as a percentage of ethanol-treated cells. The values represent the mean of 3 separate experiments ±SD. (*p<0.05, **p<0.001, ***p<0.0001, Student's t-test).
# (§7) Cell growth samples were obtained after 11 days treatment.
# UT-OC-4 cells = assay: Cell growth assay, crystal violet, 11 days; format: cell-based, human; conditions: 11 days
# Procedure: as §4, §5, §6, §7
# UT-OC-1 cells = assay: Cell growth assay, crystal violet, 11 days; format: cell-based, human; conditions: 11 days
# Procedure: as §4, §5, §6, §7
# [5] = tested on: CWR22Rv-1 prostate cancer cells; assay: Cell growth, methylene blue uptake (Experiment VI); format: cell-based; conditions: calcitriol alone, compared with OVCAR-3
# Procedure: as §3
# [6] = tested on: DU145 prostate cancer cells; assay: Cell growth, methylene blue uptake (Experiment VI); format: cell-based; conditions: calcitriol alone, compared with OVCAR-3
# Procedure: as §3
# [7] = tested on: PC3 prostate cancer cells; assay: Cell growth, methylene blue uptake (Experiment VI); format: cell-based; conditions: calcitriol alone, compared with OVCAR-3
# Procedure: as §3
# [8] = tested on: 24OHase mRNA in OVCAR-3 cells; assay: Quantitative RT-PCR of 24OHase mRNA; format: cell-based, human; conditions: 100 nM
# Procedure: Ethanol was used as a vehicle, and it was also added to the control cells. For RNA extraction, the cells were collected 4, 6 and 24 hr after the treatment with vitamin D compound or vehicle. RNA extractions were done with TRIZOL reagent (GIBCO Invitrogen Corporation, Paisley, UK). The integrity of RNA samples was confirmed on gel electrophoresis. […] The reactions for 24-hydroxylase were performed in the LightCycler instrument (Roche Diagnostics, Basel, Switzerland) from 300 ng total RNA. PBGD (human porphobilinogendeaminase) mRNA was used as an […] control. […] Nucleotides, Tth DNA polymerase (DNA polymerase and reverse transcriptase activity), SYBR Green I and reaction buffer were included in the LightCycler-RNA Master SYBR Green I kit (Roche Diagnostics). […] Cell. […] Detection of fluorescent product was performed at the end of the extension step of each cycle. To verify the specific products, melting curve analysis and gel electrophoresis were done. The data were quantified by the Fit Points method with LightCycler Data Analysis software. […] Hormone treatments and RT-PCR were done twice.
# 24-hydroxylase = biological target: T1, 24-hydroxylase (Homo sapiens, UniProt Q07973); conditions: Kahraman et al., J. Med. Chem. 47:6854-6863 (2004); cited from earlier work
# T1 sequence (Q07973 36-514): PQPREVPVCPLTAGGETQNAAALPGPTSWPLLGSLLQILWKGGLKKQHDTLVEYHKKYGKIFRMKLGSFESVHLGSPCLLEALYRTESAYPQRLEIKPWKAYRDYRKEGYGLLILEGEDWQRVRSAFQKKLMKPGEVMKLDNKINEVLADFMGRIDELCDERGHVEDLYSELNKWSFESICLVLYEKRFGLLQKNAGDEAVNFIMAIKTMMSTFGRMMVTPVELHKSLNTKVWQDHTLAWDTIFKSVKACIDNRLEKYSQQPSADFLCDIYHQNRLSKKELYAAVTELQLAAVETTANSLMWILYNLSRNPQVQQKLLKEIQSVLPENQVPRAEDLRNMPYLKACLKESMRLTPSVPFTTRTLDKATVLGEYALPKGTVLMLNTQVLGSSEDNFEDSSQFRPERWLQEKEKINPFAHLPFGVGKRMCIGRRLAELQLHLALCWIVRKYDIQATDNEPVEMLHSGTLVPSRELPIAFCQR
# [9] = tested on: RARβ mRNA in OVCAR-3 cells; assay: RPA and quantitative RT-PCR of receptor mRNA; format: cell-based, human; conditions: 10 μM, 24 hour
# Text: as §1, §2
# [10] = tested on: VDR mRNA in UT-OC-1 cells; assay: RPA and quantitative RT-PCR of receptor mRNA; format: cell-based, human; conditions: 10 μM, 24 hour
# Text: as §1, §2
# [11] = tested on: RARβ mRNA in SK-OV-3 cells; assay: RPA and quantitative RT-PCR of receptor mRNA; format: cell-based, human; conditions: 10 μM, 24 hour
# Text: as §1, §2
# [12] = tested on: AIB1 mRNA in OVCAR-3 cells; assay: RPA of nuclear receptor coregulator mRNA; format: cell-based, human; conditions: 10 μM, 24 hour
# Text: Briefly, ^32P-labelled ([α-^32P]UTP, Amersham Biosciences, Buckinghamshire, UK) RNA-probes were synthesised using in vitro transcription reaction (In vitro transcription reaction kit, Pharmingen, San Diego, Calif.) using two different template sets. […] A coregulator set produces probes for NCoR (360 bp), SMRT (310 bp), pCAF (267 bp), CBP (234 bp), TIF2 (200 bp), AIB1 (179 bp), SRC-1a (145 bp) and −1e (160 bp) and p300 (127 bp); 18S (80 bp) was used as loading control with each probe set.
# SK-OV-3 cells = assay: Cell growth assay, crystal violet, 11 days; format: cell-based, human; conditions: alone (1 or 10 μM)
# Procedure: as §4, §5, §6, §7
compound,measurement,setting,value
"C=C1/C(=C\C=C2/CCC[C@]3(C)[C@@H]([C@H](C)CCCC(C)(C)O)CC[C@@H]23)C[C@@H](O)C[C@@H]1O [1,25(OH)2D3, calcitriol]",increase of RARγ compared to control,[1]; 100 nM,78±12%
same,RARα expression,[2]; 100 nM,186±8 % of control
same,up regulation of RARγ compared to control,[3]; 100 nM,91±81%
same,effect on cell growth,[4],inhibited cell growth in a concentration-dependent manner
same,stimulated growth compared to the control,OVCAR-3 cells; 0.1 nM,14%
same,effect on the cell growth,"OVCAR-3 cells; 1 nM alone, Experiment IV",did not have an effect on the cell growth
same,effect on the cell growth,"OVCAR-3 cells; 1 nM, Experiment I",did not have an effect on the cell growth
same,inhibition at 0.01 µM,"OVCAR-3 cells; Homo sapiens, OVCAR-3, 264 h, 10 nM alone, Experiment IV, read-out: growth inhibition compared to the control",26%
same,inhibition at 0.01 µM,"OVCAR-3 cells; Homo sapiens, OVCAR-3, 264 h, 10 nM, Experiment I, read-out: inhibited growth compared to the control",8%
same,inhibition at 0.1 µM,"OVCAR-3 cells; Homo sapiens, OVCAR-3, 264 h, 100 nM, read-out: inhibited growth compared to the control",74%
same,effect on cell growth,UT-OC-4 cells; 100 nM alone,did not restrain cell growth
same,effect on cell growth,UT-OC-1 cells; 100 nM alone,did not inhibit the cell growth
same,effect on cell growth,[5],less pronounced
same,effect on cell growth,[6],less pronounced
same,effect on cell growth,[7],less pronounced
same,induction of 24OHase mRNA expression,[8]; 6 hr treatment,650 fold
same,induction of 24OHase mRNA expression,[8]; 24 hr treatment,"1,100 fold"
C=C1/C(=C\C=C2/CCCC3(C)C2CC[C@@H]3[C@H](C)CCS(=N)(=O)c2ccc(F)cc2)C[C@@H](O)C[C@@H]1O (stereo partly shown) [Formula VI],inhibitory potency for 24-hydroxylase,24-hydroxylase,Only slightly less potent
"CC1=C(/C=C/C(C)=C/C=C/C(C)=C/C(=O)O)C(C)(C)CCC1 [ATRA, all-trans-retinoic acid]",RARβ expression,[9],214±127 % of control
same,increase of RARγ compared to control,[1]; 10 μM,119±19%
same,RARα expression,[2]; 10 μM,293±70 % of control
same,up regulation of RARγ compared to control,[3]; 10 μM,83±66%
same,VDR expression,[10],53±11 % of control
same,RARβ expression,[11],657±30 % of control
same,AIB1 expression,[12],160 (±10) % of ethanol-treated control
same,effect on cell growth,SK-OV-3 cells,inhibited the growth of SK-OV-3 cells
same,effect on cell growth,UT-OC-4 cells; 10 μM alone,inhibited UT-OC-4 cell growth
same,effect on cell growth,UT-OC-1 cells; 10 μM alone,inhibited cell growth with equal magnitude
